Test [1] has as its system ACC, Glut1, Glut3, and Glut4 in BC cells. Description: Western blot of energy metabolism proteins. It is filed as cell-based, human. As for the experimental part:
(§1) Cells were lysed in radioimmunoprecipitation assay buffer containing 50 mM Tris, pH 8.0, 150 mM NaCl, 0.1% SDS, 0.5% sodium deoxycholate, 1% NP-40, 1 mM DTT, 1 mM NaF, 1 mM sodium orthovanadate, 1 mM phenylmethylsulfonyl fluoride (PMSF; Sigma-Aldrich; Merck KGaA), and 1% protease inhibitors cocktail (EMD Millipore, Billerica, MA, USA). Protein concentration was determined using the Bradford method. Equal amounts of sample (25 µg) were separated by SDS-PAGE (8–12% gels). Electrophoresed proteins were then transferred onto polyvinylidene fluoride membranes (EMD Millipore, Billerica, MA, USA). The membranes were blocked with 5% skimmed milk in Tris-buffered saline at room temperature for 1 h. Following blocking, membranes were incubated overnight at 4°C with primary antibodies and then rinsed with Tris-buffered saline with Tween 20. […]
Background: In western blotting, separated proteins are transferred to a membrane and probed.

The next test concerns AMPKα. The test can be described thus: Streptavidin agarose affinity assay. It is filed as binding, human. The following applies: Bio-Eth (4 μM) with or without Eth (12 μM), 3 h. As to the method: Cell pellets were lysed and the supernatant collection was incubated with indicated antibodies overnight at 4°C, after which protein A/G Plus beads (Santa Cruz Biotechnology) were added and incubated at 4°C for 4 h. The beads were washed 4 times in NETN buffer (1% NP-40, 2 mM EDTA, 40 mM Tris-HCl, 137 mM NaCl, pH 7.4), resuspended in SDS-PAGE loading buffer and boiled for 5 min. For streptavidin agarose affinity assay, cells upon Bio-Eth were lysed; the lysates were incubated with streptavidin agarose, washed and boiled in SDS-PAGE loading buffer. […] Western blot assays were performed.
Figure 4 Eth is a direct activator of AMPK. (A): MCF-7, MDA-MB-231, or MDA-MB-436 cells were treated with increasing concentrations of Eth for 24 h, and AMPK activity assay was performed. (B): The binding mode of Eth docked into AMPK. (C): The binding mode of Eth docked into AMPK. α subunit is green, β subunit is cyan, γ subunit is magenta and Eth is gold. (D): Details of the binding site of Eth in the ADaM site of AMPK. The main residues involved in drug interactions are shown as labeled green sticks. α subunit is green, β subunit is cyan. The pSER-108 was shown in stick and colored by gold. (E) The interaction pattern of Eth with the residues. […] (H): Viability of MCF-7, MDA-MB-231 or MDA-MB-436 cells exposed to Biotin-Eth as determined by MTT assay. […]

Test [2] relates to LC3-II and Beclin-1 in MCF-7, MDA-MB-231, and MDA-MB-436 cells. Description: Western blot of autophagy markers. Format: cell-based, human. The following applies: dose- and time-dependent. As to the method: as §1
Figure 2 Eth induces autophagy in BC cells. […] (C): MCF-7, MDA-MB-231, or MDA-MB-436 cells transfected with pQCXIP-GFP-LC3 plasmid were treated with increasing concentrations of Eth for 24 h, and assessed by immunoﬂuorescence analyses. […] (D): MDA-MB-231 or MDA-MB-436 cells transfected with pQCXIP-GFP-LC3 plasmid were treated with Eth (2.0 µM) and/or 3-MA (1 mM) for 24 h, and assessed by immunoﬂuorescence analyses. […] (F): MCF-7, MDA-MB-231, or MDA-MB-436 cells were treated with Eth (3.5 µM, 3.0 µM, or 3.0 µM) and/or 3-MA (1 mM) for 24 h and analyzed by MTT assay. […]

The source of these data is paper PMC6960228, “Ethoxysanguinarine, a Novel Direct Activator of AMP-Activated Protein Kinase, Induces Autophagy and Exhibits Therapeutic Potential in Breast Cancer Cells” (Frontiers in Pharmacology, 2020).

For the compound `CCOC1c2c(ccc3c2OCO3)-c2ccc3cc4c(cc3c2N1C)OCO4` (stereo not shown) [Eth, Ethoxysanguinarine], the “expression and activation of ACC” value in test [1] was “no significant effect”. Further, the “expression of Glut1, Glut3, and Glut4” value in test [1] (MCF-7 or MDA-MB-231 cells, 24 h) is “downregulated”. For the same compound, the “binding of Bio-Eth to AMPKα in presence of unlabeled Eth” value with AMPKα is given as “significantly attenuated by unlabeled Eth”. Further, the “accumulation of LC3-II and Beclin-1” value in test [2] was “induced the accumulation of LC3-II and Beclin-1”.
